Like-named read-outs stand apart in the source and are kept apart here.
Key:
Type in all cases: biochemical
MSK1 = MSK1 (Homo sapiens, UniProt O75582); test: Kinase screen: MSK1 assay
Protocol: (§1) Generally, the same procedure was used for all assays. Since the total assay volume was 25.5 microliters, 0.5 microliters of inhibitors at 51× assay concentration were added to the plates before any other addition.
(§2) The basic procedure was to add 0.5 microliters inhibitor/control in DMSO to plate. Fifteen microliters of enzyme/substrate/buffer mix were added and incubated for 5 min. Ten microliters MgATP at the relevant concentration were added and incubated for 30 min. The assay was stopped by adding 5 microliters of 3% orthophosphoric acid. The assay was transferred to a p81 filter plate and read in a scintillation counter of 30 sec/well. Note that this assay procedure was not followed for MKK1, which instead involved a two-step assay, and PKC alpha, which required the addition of lipid vesicles.
MSK1 assay: MSK1 (5-20 mU diluted in 20 mM MOPS pH 7.5, 1 mM EDTA, 0.01% Brij35, 0.1% b-mercaptoethanol, 1 mg/ml BSA) was assayed against a modified Crosstide peptide […] (SEQ ID NO: 4) in a final volume of 25.5 μl containing 8 mM MOPS pH7.0, 0.2 mM EDTA, 30 μM substrate peptide, 10 mM magnesium acetate and 0.02 mM [33P-g-ATP] (50-1000 cpm/pmole) and incubated for 30 min at room temperature Assays were stopped by addition of 5 μl of 0.5 M (3%) orthophosphoric acid and then harvested onto P81 Unifilter plates with a wash buffer of 50 mM orthophosphoric acid.

HIPK2 = HIPK2 (Homo sapiens, UniProt Q9H2X6); test: Kinase screen: HIPK2 assay
Protocol: as §1, §2
(§3) HIPK2 assay: 5-20 mU of HIPK2 (diluted in 50 mM Tris (pH 7.5), 0.1 mM EGTA, 1 mg/ml BSA, 0.1%, b-Mercaptoethanol) was assayed against MBP in a final volume of 25.5 μl containing 50 mM Tris (pH 7.5), 0.1 mM EGTA, 0.1%, b-Mercaptoethanol, 0.33 mg/ml MBP, 10 mM magnesium acetate and 0.005 mM [33P-g-ATP] (500-1000 cpm/pmole) and incubated for 30 mins at room temperature. Assays were stopped by addition of 5 μl of 0.5M (3%) orthophosphoric acid. Assays were harvested onto P81 Unifilter plates using a wash buffer of 50 mM orthophosphoric acid.

JNK2 = JNK2 (Homo sapiens, UniProt P45984); test: Kinase screen: JNK2 assay
Protocol: as §1, §2
JNK2 assay: JNK2 1(5-20 mU diluted in 50 mM Tris (pH 7.5), 0.1 mM EGTA, 1 mg/ml BSA, 0.1% b-mercaptoethanol) was assayed against ATF2 (activating transcription factor in a final volume of 25.5 μl in 50 mM Tris pH 7.5, 0.1 mM EGTA, 0.1% b-Mercaptoethanol, ATF2 (3 μM), 10 mM magnesium acetate and 0.02 mM [33P-g-ATP] (500-1000 cpm/pmole) and incubated for 30 min at room temperature. Assays were stopped by addition of 5 μl of 0.5 M (3%) orthophosphoric acid and then harvested onto P81 Unifilter plates with a wash buffer of 50 mM orthophosphoric acid.

NEK2a = target: T1, NEK2a (Homo sapiens, UniProt P51955); test: Kinase screen: NEK2a assay
T1 sequence (P51955 1-445): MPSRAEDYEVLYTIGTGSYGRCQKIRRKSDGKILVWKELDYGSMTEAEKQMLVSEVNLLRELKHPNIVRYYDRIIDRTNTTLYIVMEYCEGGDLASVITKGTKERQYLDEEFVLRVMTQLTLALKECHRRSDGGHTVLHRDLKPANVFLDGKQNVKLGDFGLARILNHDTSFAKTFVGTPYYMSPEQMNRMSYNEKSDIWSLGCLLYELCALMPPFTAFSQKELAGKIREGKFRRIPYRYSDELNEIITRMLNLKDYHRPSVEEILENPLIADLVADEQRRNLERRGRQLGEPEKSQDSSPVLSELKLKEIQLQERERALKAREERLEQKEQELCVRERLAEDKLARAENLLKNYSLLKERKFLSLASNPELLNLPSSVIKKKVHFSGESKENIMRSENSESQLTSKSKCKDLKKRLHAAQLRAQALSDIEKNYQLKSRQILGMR
Protocol: as §1, §2
NEK2a assay: 5-20 mU of NEK2a (diluted in 50 mM Tris (pH 7.5), 0.1 mM EGTA, 1 mg/ml BSA, 0.1%, b-Mercaptoethanol) was assayed against NEK2a peptide ([…]) (SEQ ID NO: 19) in a final volume of 25.5 μl containing 50 mM Tris (pH 7.5), 0.1 mM EGTA, 0.01% Brij, 0.1%, b-Mercaptoethanol, 300 μM NEK2a peptide, 10 mM magnesium acetate and 0.05 mM [33P-g-ATP] (500-1000 cpm/pmole) and incubated for 30 mins at room temperature. Assays were stopped by addition of 5 µl of 0.5M (3%) orthophosphoric acid. Assays were harvested onto P81 Unifilter plates using a wash buffer of 50 mM orthophosphoric acid.

Lck = Lck (Homo sapiens, UniProt P06239); test: Kinase screen: LCK assay
Protocol: as §1, §2
(500-1000 cpm/pmole) and incubated for 15 min at room temperature Assays were stopped by addition of 5 μl of 0.5 M (3%) orthophosphoric acid and then harvested onto P81 Unifilter plates with a wash buffer of 50 mM orthophosphoric acid.

MST4 = MST4 (Homo sapiens, UniProt Q9P289); test: Kinase screen: MST4 assay; details: 10 micromolar compound; for remaining activity at 10 µM: read-out: mean activity remaining (as a percentage of the original activity), MST4
Protocol: as §1, §2
as §3, with “MST4” for “HIPK2”, “EGTA)” for “EGTA, 1 mg/ml BSA, 0.1%, b-Mercaptoethanol)”, “EGTA,” for “EGTA, 0.1%, b-Mercaptoethanol,”, “0.02” for “0.005”

[1] = 10 micromolar compound, read-out: mean activity remaining (as a percentage of the original activity), MSK1
[2] = 10 micromolar compound, read-out: mean activity remaining (as a percentage of the original activity), HIPK2
[3] = 10 micromolar compound, read-out: mean activity remaining (as a percentage of the original activity), JNK2
[4] = 10 micromolar compound, read-out: mean activity remaining (as a percentage of the original activity), NEK 2a
[5] = 10 micromolar compound, read-out: mean activity remaining (as a percentage of the original activity), Lck

JNK2, sequence (P45984 whole entry, species assumed): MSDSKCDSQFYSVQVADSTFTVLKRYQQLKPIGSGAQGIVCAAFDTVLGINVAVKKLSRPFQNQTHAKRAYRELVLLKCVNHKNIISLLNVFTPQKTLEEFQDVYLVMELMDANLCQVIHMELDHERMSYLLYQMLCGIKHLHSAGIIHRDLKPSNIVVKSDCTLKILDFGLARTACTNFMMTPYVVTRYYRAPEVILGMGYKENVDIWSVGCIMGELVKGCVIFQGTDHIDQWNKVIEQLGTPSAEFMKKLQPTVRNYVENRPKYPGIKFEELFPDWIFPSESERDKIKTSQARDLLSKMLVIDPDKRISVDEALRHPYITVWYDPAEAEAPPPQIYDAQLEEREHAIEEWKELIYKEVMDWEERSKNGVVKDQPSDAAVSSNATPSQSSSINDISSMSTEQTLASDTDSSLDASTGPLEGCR
HIPK2, sequence (Q9H2X6 whole entry, species assumed): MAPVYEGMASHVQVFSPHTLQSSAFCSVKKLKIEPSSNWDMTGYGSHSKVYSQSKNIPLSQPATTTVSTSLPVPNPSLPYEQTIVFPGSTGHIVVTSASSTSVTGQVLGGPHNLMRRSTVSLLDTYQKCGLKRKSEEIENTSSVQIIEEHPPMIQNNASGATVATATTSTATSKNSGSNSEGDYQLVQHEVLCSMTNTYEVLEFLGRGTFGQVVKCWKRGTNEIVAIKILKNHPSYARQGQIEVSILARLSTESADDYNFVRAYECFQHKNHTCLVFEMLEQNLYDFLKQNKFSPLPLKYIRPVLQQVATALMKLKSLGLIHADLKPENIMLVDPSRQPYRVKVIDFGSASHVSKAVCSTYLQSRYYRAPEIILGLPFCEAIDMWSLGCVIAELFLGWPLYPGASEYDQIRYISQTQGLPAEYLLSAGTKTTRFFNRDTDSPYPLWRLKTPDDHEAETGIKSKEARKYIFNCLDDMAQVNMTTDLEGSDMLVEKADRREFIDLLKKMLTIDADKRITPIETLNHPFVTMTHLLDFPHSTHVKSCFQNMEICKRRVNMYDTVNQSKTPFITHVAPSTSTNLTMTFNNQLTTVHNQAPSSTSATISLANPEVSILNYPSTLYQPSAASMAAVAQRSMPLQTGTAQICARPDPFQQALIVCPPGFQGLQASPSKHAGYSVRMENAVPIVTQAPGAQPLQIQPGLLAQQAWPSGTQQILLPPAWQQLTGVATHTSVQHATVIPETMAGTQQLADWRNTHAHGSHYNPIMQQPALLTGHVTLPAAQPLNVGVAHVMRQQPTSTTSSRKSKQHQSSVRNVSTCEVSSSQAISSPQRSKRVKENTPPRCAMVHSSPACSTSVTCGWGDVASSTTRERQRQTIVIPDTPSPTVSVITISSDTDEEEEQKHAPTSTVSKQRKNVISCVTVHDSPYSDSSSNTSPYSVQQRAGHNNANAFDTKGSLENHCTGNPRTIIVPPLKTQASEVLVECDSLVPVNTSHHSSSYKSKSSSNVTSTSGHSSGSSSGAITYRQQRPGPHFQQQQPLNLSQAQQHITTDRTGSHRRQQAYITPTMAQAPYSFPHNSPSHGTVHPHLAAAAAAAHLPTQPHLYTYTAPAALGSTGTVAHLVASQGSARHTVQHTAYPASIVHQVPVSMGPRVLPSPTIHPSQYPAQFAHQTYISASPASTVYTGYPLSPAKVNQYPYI
MSK1, sequence (O75582 whole entry, species assumed): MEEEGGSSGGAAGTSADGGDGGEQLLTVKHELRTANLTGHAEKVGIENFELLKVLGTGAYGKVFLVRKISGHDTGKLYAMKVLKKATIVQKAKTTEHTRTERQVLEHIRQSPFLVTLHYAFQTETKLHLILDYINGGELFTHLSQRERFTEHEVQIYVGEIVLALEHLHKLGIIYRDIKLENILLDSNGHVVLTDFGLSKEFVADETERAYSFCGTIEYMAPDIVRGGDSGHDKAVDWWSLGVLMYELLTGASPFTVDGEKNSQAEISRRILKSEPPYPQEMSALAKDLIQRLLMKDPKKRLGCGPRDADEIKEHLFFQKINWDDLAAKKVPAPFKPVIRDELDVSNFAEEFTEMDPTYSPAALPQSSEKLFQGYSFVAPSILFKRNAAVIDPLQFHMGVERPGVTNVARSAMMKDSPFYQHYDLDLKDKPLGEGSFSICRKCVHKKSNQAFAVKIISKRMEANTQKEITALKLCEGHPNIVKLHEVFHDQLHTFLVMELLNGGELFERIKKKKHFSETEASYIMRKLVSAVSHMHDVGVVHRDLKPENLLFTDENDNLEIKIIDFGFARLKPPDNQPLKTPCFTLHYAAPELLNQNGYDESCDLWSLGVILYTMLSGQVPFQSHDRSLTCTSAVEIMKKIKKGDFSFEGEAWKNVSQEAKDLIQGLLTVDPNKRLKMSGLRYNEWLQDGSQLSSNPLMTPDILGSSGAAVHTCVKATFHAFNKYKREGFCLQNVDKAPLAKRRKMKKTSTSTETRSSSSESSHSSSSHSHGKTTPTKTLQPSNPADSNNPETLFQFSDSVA
Lck, sequence (P06239 whole entry, species assumed): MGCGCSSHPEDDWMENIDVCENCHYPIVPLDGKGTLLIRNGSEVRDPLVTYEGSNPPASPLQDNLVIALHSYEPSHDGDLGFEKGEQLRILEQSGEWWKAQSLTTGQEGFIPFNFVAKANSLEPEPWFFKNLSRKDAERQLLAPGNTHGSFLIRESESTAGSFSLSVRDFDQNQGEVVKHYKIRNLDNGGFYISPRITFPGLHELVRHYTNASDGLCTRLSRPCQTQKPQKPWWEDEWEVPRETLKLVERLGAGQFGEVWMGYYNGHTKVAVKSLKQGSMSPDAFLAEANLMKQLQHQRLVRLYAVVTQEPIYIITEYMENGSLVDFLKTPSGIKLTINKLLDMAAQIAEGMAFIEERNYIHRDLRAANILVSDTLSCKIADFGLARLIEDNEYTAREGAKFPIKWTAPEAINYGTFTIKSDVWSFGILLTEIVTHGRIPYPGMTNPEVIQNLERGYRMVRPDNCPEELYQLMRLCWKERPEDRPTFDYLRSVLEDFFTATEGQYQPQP
MST4, sequence (Q9P289 whole entry, species assumed): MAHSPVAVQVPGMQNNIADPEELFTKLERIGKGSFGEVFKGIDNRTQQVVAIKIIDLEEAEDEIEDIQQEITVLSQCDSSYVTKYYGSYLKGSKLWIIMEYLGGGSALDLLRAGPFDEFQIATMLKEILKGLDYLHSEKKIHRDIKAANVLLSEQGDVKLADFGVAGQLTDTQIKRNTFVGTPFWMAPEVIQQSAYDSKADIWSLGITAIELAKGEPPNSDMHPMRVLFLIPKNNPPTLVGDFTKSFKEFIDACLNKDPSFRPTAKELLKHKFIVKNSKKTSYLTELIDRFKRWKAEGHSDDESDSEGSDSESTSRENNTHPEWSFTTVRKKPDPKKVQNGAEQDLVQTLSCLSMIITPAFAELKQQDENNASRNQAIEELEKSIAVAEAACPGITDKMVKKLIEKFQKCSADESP

| SMILES | remaining activity at 10 µM (MSK1; [1]) | remaining activity at 10 µM (HIPK2; [2]) | remaining activity at 10 µM (JNK2; [3]) | remaining activity at 10 µM (NEK2a; [4]) | remaining activity at 10 µM (Lck; [5]) | remaining activity at 10 µM (MST4) | further results |
| --- | --- | --- | --- | --- | --- | --- | --- |
| CC(C)c1cnn2c(NCc3ccccc3)cc(NCCCCCCCN)nc12 [BS-181] | – | – | – | – | – | – | remaining activity at 10 µM (MSK1; MSK1, 10 μM, read-out: Mean Remaining Enzyme Activity (%)): 65%; remaining activity at 10 µM (HIPK2; HIPK2, 10 μM, read-out: Mean Remaining Enzyme Activity (%)): 88%; remaining activity at 10 µM (JNK2; JNK2, 10 μM, read-out: Mean Remaining Enzyme Activity (%)): 90%; remaining activity at 10 µM (NEK2a; NEK2a, 10 μM, read-out: Mean Remaining Enzyme Activity (%)): 92%; remaining activity at 10 µM (Lck; Lck, 10 μM, read-out: Mean Remaining Enzyme Activity (%)): 95% |
| C=C[C@H](CO)Nc1cc(NCc2ccccc2)n2ncc(C(C)C)c2n1 [ICEC0065] | 88% | 70% | 88% | 96% | 74% | 91% | – |
| CC[C@H](CO)Nc1cc(NCc2ccccc2)n2ncc(C(C)C)c2n1 [ICEC0067] | 86% | 70% | 97% | 75% | 70% | 103% | – |
| CC(C)c1cnn2c(NCc3ccccc3)cc(N[C@@H](CO)[C@H](O)CO)nc12 [ICEC0318, (3S)-3-(7-(Benzylamino)-3-isopropylpyrazolo[1,5-a]pyrimidin-5-ylamino)butane-1,2,4-triol] | 96% | 73% | 94% | 102% | 85% | 92% | – |
| CC(C)c1cnn2c(NCc3ccccc3F)cc(NCCCCCN)nc12 [ICEC-0232] | – | – | – | – | – | – | mean activity remaining (as a percentage of the original activity), MSK1 (MSK1; 10 micromolar compound): 42%; mean activity remaining (as a percentage of the original activity), HIPK2 (HIPK2; 10 micromolar compound): 49%; mean activity remaining (as a percentage of the original activity), JNK2 (JNK2; 10 micromolar compound): 89%; mean activity remaining (as a percentage of the original activity), NEK 2a (NEK2a; 10 micromolar compound): 83%; mean activity remaining (as a percentage of the original activity), Lck (Lck; 10 micromolar compound): 62%; mean activity remaining (as a percentage of the original activity), MST4 (MST4): 85% |
